Results published in DBAASP.
Converted amounts (≈) assume the structure as drawn. “And” between values parts separate entries of the source, which are not always exact repeats. Identical values can stand only once. One block for each compound: values may come before it.

How the values were obtained:
Test in all cases: ≥ marks a high value that may be exact or a test limit, other limits are often not marked, values filed in µg/mL are converted to µM
[1] = system: Staphylococcus aureus C623
[2] = system: Pseudomonas aeruginosa 198
[3] = system: Pseudomonas aeruginosa LES400
[4] = system: Klebsiella pneumoniae ESBL 61962
[5] = system: Enterococcus faecalis f43559
[6] = system: Enterococcus faecium t62764
[7] = system: Staphylococcus aureus ATCC 25923
[8] = system: Pseudomonas aeruginosa H1027
[9] = system: Enterobacter cloacae 218R
[10] = system: Enterococcus faecalis ATCC 29212
[11] = system: Enterococcus faecium mic80
[12] = system: Pseudomonas aeruginosa 213
Pseudomonas aeruginosa 9 = system: Pseudomonas aeruginosa 9
[13] = system: Klebsiella pneumoniae ESBL 63575
[14] = system: Enterococcus faecalis W61950
[15] = system: Escherichia coli ESBL 63103
[16] = system: Stenotrophomonas maltophilia ATCC 13637
[17] = system: Pseudomonas aeruginosa PAO1 H103
[18] = system: Escherichia coli ESBL 64771
[19] = system: Pseudomonas aeruginosa H1030
[20] = system: Escherichia coli ATCC 25922
[21] = system: Batrachochytrium dendrobatidis
Pseudomonas aeruginosa = system: Pseudomonas aeruginosa
[22] = system: Klebsiella pneumoniae ST258
Escherichia coli ST131 = system: Escherichia coli ST131
Escherichia coli B = system: Escherichia coli B
Staphylococcus aureus = system: Staphylococcus aureus
Bacillus subtilis 168 = system: Bacillus subtilis 168
[23] = system: Staphylococcus aureus ATCC 6538P
[24] = system: Bacillus subtilis ATCC 6633
[25] = system: Klebsiella pneumoniae ATCC 10031
[26] = system: Micrococcus luteus ATCC 10240
[27] = system: Staphylococcus aureus TK784
[28] = system: Shigella dysenteriae ATCC 9752
[29] = system: Salmonella enterica subsp. enterica serovar Typhimurium ATCC 14028
[30] = system: Staphylococcus epidermidis ATCC 12228
[31] = system: Pseudomonas aeruginosa ATCC 27853
Candida albicans 820 = system: Candida albicans 820
Escherichia coli ML-35p = system: Escherichia coli ML-35p
[32] = system: Listeria monocytogenes EGD
Micrococcus luteus A270 = system: Micrococcus luteus A270
Candida albicans MDM8 = system: Candida albicans MDM8
Escherichia coli SBS 363 = system: Escherichia coli SBS 363
Bacillus thuringiensis = system: Bacillus thuringiensis
[33] = system: Alcaligenes faecalis ATCC 8750
[34] = system: Klebsiella pneumoniae ATCC 13883
[35] = system: Bacillus subtilis CCT 2471
Candida albicans = system: Candida albicans
[36] = system: Staphylococcus saprophyticus
[37] = system: Escherichia coli CCT 1371
[38] = system: Staphylococcus aureus CCT 6538
[39] = system: Salmonella enterica subsp. arizonae ATCC 13314

MIC [1]: ≥ 34.3 µM
MIC [2]: ≥ 137 µM
MIC [3]: ≥ 137 µM
MIC [4]: ≥ 137 µM
MIC [5]: ≥ 137 µM
MIC [6]: 8.77 µM (≈ 11 µg/mL)
MIC [7]: 34.3 µM (≈ 43 µg/mL)
MIC [8]: ≥ 137 µM
MIC [9]: ≥ 68.6 µM
MIC [10]: > 137 µM
MIC [11]: ≥ 68.6 µM
MIC [12]: ≥ 137 µM
MIC (Pseudomonas aeruginosa 9): ≥ 137 µM
MIC [13]: ≥ 137 µM
MIC [14]: ≥ 137 µM
MIC [15]: ≥ 68.6 µM
MIC [16]: ≥ 68.6 µM
MIC [17]: ≥ 137 µM
MIC [18]: ≥ 68.6 µM
MIC [19]: ≥ 137 µM
SMILES: CC[C@H](C)[C@H](NC(=O)[C@H](C)N)C(=O)N[C@@H](CCCN=C(N)N)C(=O)N[C@@H](CCCN=C(N)N)C(=O)N[C@@H](Cc1c[nH]c2ccccc12)C(=O)N[C@@H](CCCN=C(N)N)C(=O)N[C@H](C(=O)N[C@@H](CCCN=C(N)N)C(=O)N[C@@H](CCCCN)C(=O)O)[C@@H](C)CC [AIRRWRIRK]

MIC [20]: 17 µM (≈ 48.9 µg/mL)
MIC [21]: 12.5 µM (≈ 35.9 µg/mL)
SMILES: CC[C@H](C)[C@H](NC(=O)CN)C(=O)N[C@@H](CCSC)C(=O)N[C@@H](CC(=O)O)C(=O)N[C@@H](CO)C(=O)N[C@H](C(=O)N[C@@H](CCCCN)C(=O)NCC(=O)N[C@@H](CC(C)C)C(=O)N[C@@H](C)C(=O)N[C@@H](CCCCN)C(=O)N[C@@H](CC(N)=O)C(=O)N[C@@H](CC(C)C)C(=O)N[C@@H](C)C(=O)NCC(=O)N[C@@H](CCCCN)C(=O)N[C@@H](CC(C)C)C(=O)N[C@@H](CC(C)C)C(=O)N[C@@H](CC(=O)O)C(=O)N[C@@H](CO)C(=O)N[C@@H](CC(C)C)C(=O)N[C@@H](CCCCN)C(=O)N[C@H]1CSSC[C@@H](C(=O)O)NC(=O)CNC(=O)[C@H]([C@@H](C)O)NC(=O)[C@H]([C@@H](C)CC)NC(=O)[C@H](CCCCN)NC1=O)C(C)C [GIMDSVKGLAKNLAGKLLDSLKCKITGC]

MIC (Pseudomonas aeruginosa): 14.2 µM (≈ 20.4 µg/mL)
MIC [22]: ≥ 32 µM
MIC (Escherichia coli ST131): 2 µM (≈ 2.88 µg/mL)
MIC [20]: 2 µM (≈ 2.88 µg/mL)
MIC (Escherichia coli B): 1.8 µM (≈ 2.59 µg/mL)
MIC (Staphylococcus aureus): 60 µM (≈ 86.3 µg/mL)
MIC (Bacillus subtilis 168): 1.3 µM (≈ 1.87 µg/mL)
SMILES: CC[C@H](C)[C@H](NC(=O)[C@H](CC(C)C)NC(=O)[C@H](CCCCN)NC(=O)CNC(=O)[C@H](CC(C)C)NC(=O)[C@@H](NC(=O)[C@H](CCCCN)NC(=O)[C@H](CCCCN)NC(=O)[C@H](Cc1c[nH]c2ccccc12)NC(=O)[C@H](CCCCN)NC(=O)CN)[C@@H](C)CC)C(=O)N[C@@H](CCCN=C(N)N)C(N)=O [GKWKKILGKLIR]

MIC [23]: 1.42 µM (≈ 2 µg/mL)
MIC [24]: 1.42 µM (≈ 2 µg/mL)
MIC [25]: 2.84 µM (≈ 4 µg/mL)
MIC [26]: 2.84 µM (≈ 4 µg/mL)
MIC [27]: 11.3 µM (≈ 16 µg/mL)
MIC [20]: 2.84 µM (≈ 4 µg/mL)
MIC [28]: 1.42 µM (≈ 2 µg/mL)
MIC [29]: 2.84 µM (≈ 4 µg/mL)
MIC [30]: 1.42 µM (≈ 2 µg/mL)
MIC [31]: 2.84 µM (≈ 4 µg/mL)
SMILES: CC(C)C[C@H](NC(=O)[C@H](CC(C)C)NC(=O)[C@H](CCCCN)NC(=O)[C@H](CCCCN)NC(=O)[C@H](CC(C)C)NC(=O)[C@H](Cc1c[nH]c2ccccc12)NC(=O)[C@H](CCCCN)NC(=O)[C@H](CC(C)C)NC(=O)[C@@H](N)CC(C)C)C(=O)N[C@@H](CCCCN)C(=O)N[C@@H](CCCCN)C(N)=O [LLKWLKKLLKK]

MIC (Candida albicans 820): 2.3 µM and 4.5 µM
MIC (Escherichia coli ML-35p): 1.6 µM and 3.5 µM
MIC [32]: 1.3 µM and 1.8 µM
SMILES: CC[C@H](C)[C@@H]1NC(=O)[C@H](CCCN=C(N)N)NC(=O)[C@@H]2CSSC[C@@H]3NC(=O)[C@H](C(C)C)NC(=O)CNC(=O)[C@H](Cc4ccccc4)NC(=O)[C@H](Cc4ccc(O)cc4)NC(=O)[C@H](C(C)C)NC(=O)[C@H](CCC(=O)O)NC(=O)[C@H](CC(C)C)NC(=O)CNC(=O)[C@H](CC(C)C)NC(=O)[C@H](CSSC[C@H](NC(=O)[C@H](CCCN=C(N)N)NC(=O)[C@H](CCCN=C(N)N)NC(=O)[C@H](C)NC(=O)[C@H](CC(C)C)NC(=O)[C@H](CCCN=C(N)N)NC(=O)CNC(=O)[C@H](Cc4cnc[nH]4)NC(=O)[C@H](CC(C)C)NC(=O)[C@H](Cc4ccccc4)NC3=O)C(=O)N[C@H](C(=O)N[C@@H](CCCN=C(N)N)C(=O)O)CSSC[C@H](NC(=O)[C@@H](NC(=O)[C@H](CCCN=C(N)N)NC(=O)[C@@H](N)CCCN=C(N)N)[C@@H](C)CC)C(=O)N[C@@H](CCCN=C(N)N)C(=O)N2)NC(=O)[C@H](CCCN=C(N)N)NC(=O)CNC1=O [RRICRCRIGRCLGLEVYFGVCFLHGRLARRCCR]

MIC (Micrococcus luteus A270): 0.8 µM (≈ 1 µg/mL)
MIC (Candida albicans MDM8): 0.8 µM (≈ 1 µg/mL)
MIC (Escherichia coli SBS 363): 1.6 µM (≈ 2.01 µg/mL)
MIC (Bacillus thuringiensis): 20 µM (≈ 25.1 µg/mL)
MIC [24]: 6.2 µM (≈ 7.78 µg/mL)
MIC [33]: ≥ 40 µM
MIC [34]: ≥ 40 µM
MIC [20]: 40 µM (≈ 50.2 µg/mL)
MIC [35]: 8 µM (≈ 10 µg/mL)
MIC (Candida albicans): 20 µM (≈ 25.1 µg/mL)
MIC [36]: 20 µM (≈ 25.1 µg/mL)
MIC [37]: 20 µM (≈ 25.1 µg/mL)
MIC [38]: 4 µM (≈ 5.02 µg/mL)
MIC [39]: 25 µM (≈ 31.4 µg/mL)
MIC [31]: 1.6 µM (≈ 2.01 µg/mL)
SMILES: CC[C@H](C)[C@H](NC(=O)[C@H](CC(C)C)NC(=O)[C@H](CO)NC(=O)[C@H](CC(C)C)NC(=O)[C@H](CC(C)C)NC(=O)[C@@H](N)CO)C(=O)N[C@@H](CCCN=C(N)N)C(=O)N[C@@H](CCCCN)C(=O)N[C@@H](CC(C)C)C(=O)N[C@H](C(=O)N[C@H](C(N)=O)[C@@H](C)O)[C@@H](C)CC [SLLSLIRKLIT]
